{"source": "paper PMC10197885", "about": "“Anomanolide C suppresses tumor progression and metastasis by ubiquitinating GPX4-driven autophagy-dependent ferroptosis in triple negative breast cancer” (International Journal of Biological Sciences, 2023)", "biological_target": "T1, GPX4 (Homo sapiens, UniProt P36969)", "T1 sequence (P36969 28-197)": "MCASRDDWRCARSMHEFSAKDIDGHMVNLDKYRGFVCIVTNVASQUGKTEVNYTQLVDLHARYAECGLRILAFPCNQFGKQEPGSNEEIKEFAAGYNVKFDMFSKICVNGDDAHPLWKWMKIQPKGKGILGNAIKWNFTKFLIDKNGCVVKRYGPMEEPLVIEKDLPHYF", "test": "SPR (Biacore, GPX4 coupled to CM5 chip); supported by CETSA in MDA-MB-231 cells", "assay_type": "binding", "from_the_text": "SPR (Biacore, GPX4 coupled to CM5 chip); supported by CETSA in MDA-MB-231 cells on GPX4 | AC binds to GPX4 protein as shown by surface plasmon resonance (SPR) measurements.", "data": [{"smiles": "C[C@@]12CC([C@@]3(O)[C@H](O)C[C@H]4[C@@H]5C[C@H]6O[C@]67[C@@H](O)C=CC(=O)[C@]7(C)[C@H]5CC[C@@]43C)[C@@H](C1)OC(=O)[C@]2(C)O", "note": "(stereo partly shown) [AC, Anomanolide C]", "values": [{"measurement": "Kd", "result": "~24", "unit": "µM"}]}]}
